What all share (experiment): NCI anticancer screen, dose series, 48 h
In assay [1] the test system is U-251.
The subject of assay [2] is SNB-19.
Assay [3] deals with SK-MEL-28.
Assay [4] relates to SF-539.
The test system of assay [5] is ACHN.
Assay [6] has as its system OVCAR-8.
Assay [7] has as its system SF-295.
For assay [8], the system named is DLD-1.
Assay [9] concerns IGROV-1.
In assay [10] the test system is NCI-H460.
Assay [11] has as its system SN12C.
In assay [12] the test system is LOX IMVI.
Assay [13] concerns CAKI-1.
In assay [14] the test system is OVCAR-5.
The subject of assay [15] is SK-MEL-2.
The subject of assay [16] is NCI-H226.
The test system of assay [17] is MDA-N.
For assay [18], the system named is Malme-3M.
For assay [19], the system named is DU-145.

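Briefly, cells in 96-well plates were exposed to five compound concentrations for 48 h, and endpoints were estimated by linear interpolation. GI50 = concentration required for 50% inhibition of growth.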 The source made the active and inactive calls. Cut-off read from the data, not from the text of the source: active = GI50 up to about 1.1 µM and inactive = higher.

Consider `Cn1nc(-c2ccccc2)c(C(=O)/C=C/c2ccc(Cl)cc2)c(N2CCCC2)c1=O`, for which the GI50 is 4.27 µM (inactive) in assay [1]; 10 µM (inactive) in [2]; 3.76 µM (inactive) in assay [3]; 3.55 µM (inactive) in [4]; 1.72 µM (inactive) in [5]; 4.91 µM (inactive) in assay [6]. Besides, the GI50 in assay [7] was 0.632 µM (active); in assay [8], 2.69 µM (inactive); in [9], 6.31 µM (inactive); in assay [10], 3.86 µM (inactive); in assay [11], 5.94 µM (inactive); in assay [12], 3.8 µM (inactive). Moreover, in assay [13], the GI50 was 0.55 µM (active).

Turning to `CN1CCc2cc(N)cc3c2C1Cc1ccc(O)c(O)c1-3` (stereo not drawn), the GI50 was 85.1 µM (inactive) in assay [14]; 40.9 µM (inactive) in assay [15]; 39.5 µM (inactive) in [1]; 46.6 µM (inactive) in assay [2]; 32.7 µM (inactive) in assay [16]; 35.6 µM (inactive) in assay [3]. The GI50 in [17] was 34.7 µM (inactive); in assay [4] it was 38 µM (inactive); in assay [5], 25.8 µM (inactive); in [6] it was 30.7 µM (inactive); in [18], 37.8 µM (inactive); in assay [7], 39.8 µM (inactive). In addition, the GI50 in assay [9] is 33.7 µM (inactive); in assay [10], 30.5 µM (inactive); in assay [11], 34.5 µM (inactive); in assay [19], 56.6 µM (inactive); in assay [12], 18.6 µM (inactive); in assay [13] it was 37.2 µM (inactive).

Turning to `COc1ccc(/C=C2/N/C(=N\N=C/C(O)C(O)C(O)C(O)CO)NC2=O)cc1` (stereo not drawn), the GI50 in assay [14], in assay [15], in assay [1], in assay [2], in assay [16] and in assay [3] was > 100 µM (inactive) each time. For the same compound, the GI50 in [17], in [4], in assay [5], in assay [6], in assay [18] and in assay [7] was > 100 µM (inactive) each time. The GI50 in assay [9], in assay [10], in assay [11], in assay [19], in assay [12] and in assay [13] was > 100 µM (inactive) in each case.

For `CNc1nc(=O)c(C#N)c(-c2ccc(C)cc2)s1`, the GI50 in assay [14], in [15], in [1], in [2], in [16] and in assay [3] was > 100 µM (inactive) each time. In addition, the GI50 in assay [17], in assay [4], in assay [5], in [6], in assay [18] and in assay [7] was > 100 µM (inactive) in each case. Moreover, the GI50 in [9] was > 100 µM (inactive); in [10] it was > 100 µM (inactive); in assay [11], > 100 µM (inactive); in assay [19], > 100 µM (inactive); in assay [12], > 100 µM (inactive); in [13] it was 35.6 µM (inactive).

Consider `O=c1c2cc3c(cc2[nH]c2ncccc12)OCO3`, for which the GI50 in [14], in [15], in assay [1], in assay [2], in assay [16] and in assay [3] was > 10 µM (inactive) in each case. In addition, the GI50 in assay [17], in [4], in [5], in assay [6], in [18] and in [7] was > 10 µM (inactive) throughout. Moreover, the GI50 in assay [9], in assay [10], in assay [11], in assay [19], in assay [12] and in assay [13] was > 10 µM (inactive) throughout.

Take `O=[N+]([O-])/C(Cl)=C(\NCCO)C(Cl)=C(Cl)Cl`: the GI50 in [14] is > 100 µM (inactive); in assay [15], > 100 µM (inactive); in assay [1], > 93.3 µM (inactive); in [2], > 100 µM (inactive); in assay [16] it was > 100 µM (inactive); in assay [3], > 85.7 µM (inactive). Also, the GI50 was 55.5 µM (inactive) in [17]; > 100 µM (inactive) in assay [4]; 89.5 µM (inactive) in [5]; 52.8 µM (inactive) in [6]; 32.5 µM (inactive) in [18]; > 100 µM (inactive) in assay [7]. The GI50 in assay [9] was > 100 µM (inactive); in [10] it was > 100 µM (inactive); in assay [11], 43 µM (inactive); in assay [19], > 100 µM (inactive); in [12], 70 µM (inactive); in assay [13], > 86.7 µM (inactive).

For `COC1=CC(=O)C2=C(C1=O)[C@H]1CC[C@]3(C)[C@@H](OC(C)=O)CC[C@H]3[C@@H]1CC2`, the GI50 in assay [14] was 37.8 µM (inactive); in assay [15] it was 37.5 µM (inactive); in [1] it was 30.3 µM (inactive); in [2] it was > 100 µM (inactive); in assay [16], 75.2 µM (inactive); in assay [3] it was > 100 µM (inactive). Besides, the GI50 is 28.6 µM (inactive) in assay [17]; 75.3 µM (inactive) in [4]; 35.1 µM (inactive) in assay [5]; 23.9 µM (inactive) in assay [6]; 30.3 µM (inactive) in assay [18]; 92.3 µM (inactive) in assay [7]. In addition, the GI50 in assay [9] was 25.2 µM (inactive); in [10] it was 71 µM (inactive); in assay [11], 95.9 µM (inactive); in assay [19], 67.8 µM (inactive); in [12], 15.1 µM (inactive); in assay [13], 49 µM (inactive).

With `COc1cc(/C=c2/c3ccccc3n3c2cc(-c2ccccc2)[n+]3C)cc(OC)c1OC`, the GI50 in [14] is 4.85 µM (inactive); in assay [15], 2.58 µM (inactive); in assay [1], 3.7 µM (inactive); in [2], 5.48 µM (inactive); in assay [16], 7.94 µM (inactive); in assay [3] it was 5.78 µM (inactive). In addition, the GI50 in assay [17] was 4.04 µM (inactive); in [4], 2.86 µM (inactive); in assay [5] it was 4.07 µM (inactive); in assay [6], 3.33 µM (inactive); in assay [18], 2.19 µM (inactive); in assay [7], 5.64 µM (inactive). Moreover, the GI50 in assay [9] is 6.19 µM (inactive); in assay [10], 4.58 µM (inactive); in assay [11], 2.82 µM (inactive); in [19], 5.47 µM (inactive); in assay [12], 3.69 µM (inactive); in assay [13], 3.92 µM (inactive).

As for `Cc1cccc(NC(=S)N/N=C(/c2ccccc2)c2ccccn2)c1`, the GI50 was 0.0266 µM (active) in assay [14]; 2.49 µM (inactive) in [15]; 0.0299 µM (active) in assay [1]; 3.6 µM (inactive) in [2]; 0.207 µM (active) in assay [16]; 1.89 µM (inactive) in assay [3]. For the same compound, the GI50 in assay [17] is 0.46 µM (active); in assay [4], 1.31 µM (inactive); in assay [5], 0.044 µM (active); in assay [6] it was 0.038 µM (active); in [18], 0.174 µM (active); in assay [7] it was 0.173 µM (active). Moreover, the GI50 was < 0.0182 µM (active) in assay [9]; 0.159 µM (active) in assay [10]; 0.359 µM (active) in [11]; 0.942 µM (active) in assay [19]; 0.0224 µM (active) in assay [12]; 0.249 µM (active) in assay [13].

As for `CC(=O)OC12c3ccccc3-c3ccccc3C1C1C(=O)N(C)C(=O)C12Cl` (stereo not drawn), the GI50 in [14], in assay [15], in [1], in [2], in [16] and in assay [3] was > 10 µM (inactive) in each case. The GI50 in assay [17], in assay [4], in [5], in [6], in assay [18] and in assay [7] was > 10 µM (inactive) in each case. Also, the GI50 in assay [9], in assay [10], in assay [11], in [19], in assay [12] and in [13] was > 10 µM (inactive) in each case.

Turning to `C=C(C)[C@@H]1CC[C@]2(C)CC[C@]3(C)[C@H](CC[C@@H]4[C@@]5(C)CC[C@H](OC(=O)c6ccccc6)C(C)(C)[C@@H]5CC[C@]43C)[C@@H]12`, the GI50 in assay [14], in assay [15], in assay [1], in [2], in assay [16] and in assay [3] was > 100 µM (inactive) in each case. The GI50 in assay [17], in assay [4], in assay [5], in assay [6], in assay [18] and in assay [7] was > 100 µM (inactive) each time. Besides, the GI50 in assay [9], in [10], in assay [11], in assay [19], in [12] and in [13] was > 100 µM (inactive) in each case.

Values taken from ChEMBL document CHEMBL1201862, “PubChem BioAssay data set” (2004).
